ChEMBL document CHEMBL3621135 (ACS Med Chem Lett, 2015)
Calls of active or inactive are those of the source. The rule behind the calls is not given here.

What was measured:
[1] = Half life in mouse at 2 mg/kg, iv and 10 mg/kg, po; format: ADME, organism-based; conditions: in vivo
[2] = Toxicity in micronucleus (unknown origin) assessed as induction of clastogenesis by micronucleus assay
BaF3 [3] = assay: Antiproliferative activity against mouse BAF3 cells expressing JAK2 V617F mutant incubated for 72 hrs by [3H] thymidine incorporation assay; format: functional, cell-based
hERG [4] = molecular target: T1, hERG (Homo sapiens, UniProt Q12809); assay: Inhibition of human ERG at 30 uM by patch clamp assay
[5] = Oral bioavailability in rat at 1 mg/kg; format: ADME, organism-based; conditions: in vivo
[6] = Half in mouse liver microsomes; format: ADME
Rattus norvegicus = assay: Toxicity in rat assessed as drug tolerability at 15 mg/kg/day for 2 weeks; format: organism-based; conditions: in vivo, 336 h
[7] = Oral bioavailability in cynomolgus monkey at 1 mg/kg; format: ADME, organism-based, Macaca fascicularis; conditions: in vivo
[8] = molecular target: T2, Tyrosine-protein kinase JAK3 (Homo sapiens, UniProt P52333); assay: Binding affinity to JAK3 (unknown origin) assessed as dissociation constant
T2 sequence (P52333 whole entry): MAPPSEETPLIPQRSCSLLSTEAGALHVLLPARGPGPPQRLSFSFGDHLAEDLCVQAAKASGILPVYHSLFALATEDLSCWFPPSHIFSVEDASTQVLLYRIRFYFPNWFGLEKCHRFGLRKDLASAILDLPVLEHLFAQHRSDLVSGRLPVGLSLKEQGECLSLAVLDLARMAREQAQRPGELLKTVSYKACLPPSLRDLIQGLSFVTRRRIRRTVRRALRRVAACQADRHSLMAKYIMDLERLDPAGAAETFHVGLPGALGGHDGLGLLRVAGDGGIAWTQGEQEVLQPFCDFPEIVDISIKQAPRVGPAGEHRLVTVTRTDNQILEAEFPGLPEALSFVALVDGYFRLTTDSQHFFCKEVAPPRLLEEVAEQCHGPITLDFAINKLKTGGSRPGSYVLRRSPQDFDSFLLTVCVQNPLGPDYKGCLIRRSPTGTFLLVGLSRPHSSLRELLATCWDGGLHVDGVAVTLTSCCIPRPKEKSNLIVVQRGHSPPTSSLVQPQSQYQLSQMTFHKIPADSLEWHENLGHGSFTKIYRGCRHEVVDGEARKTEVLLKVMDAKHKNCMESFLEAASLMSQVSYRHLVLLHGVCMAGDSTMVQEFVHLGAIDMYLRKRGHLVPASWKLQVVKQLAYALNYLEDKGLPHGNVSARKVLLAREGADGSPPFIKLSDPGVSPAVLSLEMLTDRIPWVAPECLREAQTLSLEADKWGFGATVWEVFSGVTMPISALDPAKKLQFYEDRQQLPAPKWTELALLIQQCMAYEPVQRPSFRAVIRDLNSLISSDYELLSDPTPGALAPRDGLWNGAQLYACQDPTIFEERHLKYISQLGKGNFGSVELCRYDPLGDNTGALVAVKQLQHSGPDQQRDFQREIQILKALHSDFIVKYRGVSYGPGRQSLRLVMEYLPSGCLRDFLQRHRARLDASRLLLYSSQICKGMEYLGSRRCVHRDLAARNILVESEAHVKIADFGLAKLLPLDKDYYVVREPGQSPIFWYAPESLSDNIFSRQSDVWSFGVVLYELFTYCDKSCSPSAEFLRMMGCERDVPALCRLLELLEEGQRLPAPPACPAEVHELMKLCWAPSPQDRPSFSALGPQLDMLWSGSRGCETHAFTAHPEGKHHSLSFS

BaF3 [9] = assay: Antiproliferative activity against IL3-stimulated mouse BAF3 cells incubated for 72 hrs by [3H] thymidine incorporation assay; format: functional, cell-based
Homo sapiens = species on record: Homo sapiens; assay: Inhibition of sodium channel (unknown origin) at 10 uM at 1 and 4 Hz stimulation by patch clamp assay
[10] = Half life in cynomolgus monkey at 1 mg/kg, iv and 1 mg/kg, po; format: ADME, organism-based, Macaca fascicularis; conditions: in vivo
MIA PaCa-2 = assay: Antiproliferative activity against human MIAPaCa2 cells incubated for 72 hrs by [3H] thymidine incorporation assay; format: functional, cell-based
[11] = Antiproliferative activity against mouse CTLL-2 cells incubated for 72 hrs by [3H] thymidine incorporation assay; format: functional, cell-based
[12] = Oral bioavailability in dog at 0.2 mg/kg; format: ADME, organism-based, Canis lupus familiaris; conditions: in vivo
[13] = molecular target: Tyrosine-protein kinase JAK1 (Homo sapiens, UniProt P23458); assay: Binding affinity to JAK1 (unknown origin) assessed as dissociation constant
[14] = Clearance in cynomolgus monkey at 1 mg/kg, iv and 1 mg/kg, po; format: ADME, organism-based, Macaca fascicularis; conditions: in vivo
[15] = Volume of distribution at steady state in dog at 0.2 mg/kg, iv and 0.2 mg/kg, po; format: ADME, organism-based, Canis lupus familiaris; conditions: in vivo, read-out: Vdss
[16] = molecular target: T3, Nuclear receptor subfamily 1 group I member 2 (Homo sapiens, UniProt O75469); assay: Activation of PXR (unknown origin); format: ADME
T3 sequence (O75469 whole entry): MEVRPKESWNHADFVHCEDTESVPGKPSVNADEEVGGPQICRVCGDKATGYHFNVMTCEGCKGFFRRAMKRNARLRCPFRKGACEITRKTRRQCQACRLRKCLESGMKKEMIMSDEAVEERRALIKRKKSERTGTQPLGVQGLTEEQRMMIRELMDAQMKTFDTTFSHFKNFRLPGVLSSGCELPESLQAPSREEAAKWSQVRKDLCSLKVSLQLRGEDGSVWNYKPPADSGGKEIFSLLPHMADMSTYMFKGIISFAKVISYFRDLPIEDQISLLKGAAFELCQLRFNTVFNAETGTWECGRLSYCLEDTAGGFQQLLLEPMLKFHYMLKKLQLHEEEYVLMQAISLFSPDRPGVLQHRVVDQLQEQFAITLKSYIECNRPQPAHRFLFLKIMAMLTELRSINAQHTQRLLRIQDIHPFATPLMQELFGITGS

[17] = molecular target: Tyrosine-protein kinase JAK2 (Mus musculus, UniProt Q62120); assay: Inhibition of JAK2 in mouse BAF3 cells assessed as reduction in STAT5 phosphorylation incubated for 2 hrs by Western blot method; format: cell-based
[18] = Inhibition of calcium channel (unknown origin) by patch clamp assay; parameters: species or system Homo sapiens
JAK3/JAK1 = JAK3/JAK1 (Homo sapiens, UniProt P23458+P52333); assay: Inhibition of JAK1/JAK3 in T cells (unknown origin) assessed as reduction in IL2-mediated cell proliferation; format: cell-based
[19] = AUC (0 to 8 hrs) in mouse pharamcodynamic model at 30 mg/kg, po; format: ADME, organism-based; parameters: dose 30 mg/kg, time < 8 hr, route oral; conditions: in vivo
[20] = Clearance in rat at 1 mg/kg, iv and 1 mg/kg, po; format: ADME, organism-based; conditions: in vivo
[21] = Clearance in dog at 0.2 mg/kg, iv and 0.2 mg/kg, po; format: ADME, organism-based, Canis lupus familiaris; conditions: in vivo
Mus musculus [22] = assay: Oral bioavailability in mouse at 10 mg/kg; format: ADME, organism-based; conditions: in vivo
Mus musculus [23] = assay: Inhibition of JAK2 in mouse pharamcodynamic model assessed as reduction in STAT5 phosphorylation at 5 mg/kg, po measured after 8 hrs; format: functional
hERG [24] = molecular target: T1, hERG; assay: Inhibition of human ERG channel at 30 uM
Mus musculus [25] = assay: Inhibition of JAK2 in mouse pharamcodynamic model assessed as reduction in STAT5 phosphorylation at 10 mg/kg, po measured up to 18 hrs; format: functional

T1 sequence (Q12809 whole entry): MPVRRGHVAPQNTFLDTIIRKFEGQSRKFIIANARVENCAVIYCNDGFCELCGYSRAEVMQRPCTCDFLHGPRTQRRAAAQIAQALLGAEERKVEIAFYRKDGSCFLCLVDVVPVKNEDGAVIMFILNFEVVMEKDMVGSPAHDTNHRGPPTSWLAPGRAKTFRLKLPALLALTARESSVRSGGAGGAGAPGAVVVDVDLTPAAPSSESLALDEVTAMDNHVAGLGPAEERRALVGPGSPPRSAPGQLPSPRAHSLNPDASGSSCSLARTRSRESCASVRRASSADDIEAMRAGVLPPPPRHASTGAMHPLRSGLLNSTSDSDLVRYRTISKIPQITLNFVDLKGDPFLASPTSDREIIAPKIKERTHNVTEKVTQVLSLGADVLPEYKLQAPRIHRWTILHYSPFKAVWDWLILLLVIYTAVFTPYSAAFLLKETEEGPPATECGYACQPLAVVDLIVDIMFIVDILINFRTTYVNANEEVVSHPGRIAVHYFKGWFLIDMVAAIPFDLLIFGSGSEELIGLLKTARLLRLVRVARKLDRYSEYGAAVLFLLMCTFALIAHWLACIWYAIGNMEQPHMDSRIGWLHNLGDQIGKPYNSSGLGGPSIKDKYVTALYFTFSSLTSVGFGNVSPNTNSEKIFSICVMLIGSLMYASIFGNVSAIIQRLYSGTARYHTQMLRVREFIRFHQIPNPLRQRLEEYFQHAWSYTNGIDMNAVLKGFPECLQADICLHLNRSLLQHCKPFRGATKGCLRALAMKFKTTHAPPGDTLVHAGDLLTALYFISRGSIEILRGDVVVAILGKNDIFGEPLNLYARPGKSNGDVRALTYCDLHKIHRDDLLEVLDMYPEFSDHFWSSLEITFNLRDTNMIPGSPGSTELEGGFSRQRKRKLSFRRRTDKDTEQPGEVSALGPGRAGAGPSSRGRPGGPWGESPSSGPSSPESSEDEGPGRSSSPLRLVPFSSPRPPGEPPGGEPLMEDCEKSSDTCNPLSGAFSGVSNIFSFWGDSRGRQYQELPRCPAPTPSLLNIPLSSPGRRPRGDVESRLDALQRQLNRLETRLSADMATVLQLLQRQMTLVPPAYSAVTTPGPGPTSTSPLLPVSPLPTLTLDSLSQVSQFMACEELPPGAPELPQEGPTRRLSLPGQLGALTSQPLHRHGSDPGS
Chain of Tyrosine-protein kinase JAK2 (Q62120 whole entry): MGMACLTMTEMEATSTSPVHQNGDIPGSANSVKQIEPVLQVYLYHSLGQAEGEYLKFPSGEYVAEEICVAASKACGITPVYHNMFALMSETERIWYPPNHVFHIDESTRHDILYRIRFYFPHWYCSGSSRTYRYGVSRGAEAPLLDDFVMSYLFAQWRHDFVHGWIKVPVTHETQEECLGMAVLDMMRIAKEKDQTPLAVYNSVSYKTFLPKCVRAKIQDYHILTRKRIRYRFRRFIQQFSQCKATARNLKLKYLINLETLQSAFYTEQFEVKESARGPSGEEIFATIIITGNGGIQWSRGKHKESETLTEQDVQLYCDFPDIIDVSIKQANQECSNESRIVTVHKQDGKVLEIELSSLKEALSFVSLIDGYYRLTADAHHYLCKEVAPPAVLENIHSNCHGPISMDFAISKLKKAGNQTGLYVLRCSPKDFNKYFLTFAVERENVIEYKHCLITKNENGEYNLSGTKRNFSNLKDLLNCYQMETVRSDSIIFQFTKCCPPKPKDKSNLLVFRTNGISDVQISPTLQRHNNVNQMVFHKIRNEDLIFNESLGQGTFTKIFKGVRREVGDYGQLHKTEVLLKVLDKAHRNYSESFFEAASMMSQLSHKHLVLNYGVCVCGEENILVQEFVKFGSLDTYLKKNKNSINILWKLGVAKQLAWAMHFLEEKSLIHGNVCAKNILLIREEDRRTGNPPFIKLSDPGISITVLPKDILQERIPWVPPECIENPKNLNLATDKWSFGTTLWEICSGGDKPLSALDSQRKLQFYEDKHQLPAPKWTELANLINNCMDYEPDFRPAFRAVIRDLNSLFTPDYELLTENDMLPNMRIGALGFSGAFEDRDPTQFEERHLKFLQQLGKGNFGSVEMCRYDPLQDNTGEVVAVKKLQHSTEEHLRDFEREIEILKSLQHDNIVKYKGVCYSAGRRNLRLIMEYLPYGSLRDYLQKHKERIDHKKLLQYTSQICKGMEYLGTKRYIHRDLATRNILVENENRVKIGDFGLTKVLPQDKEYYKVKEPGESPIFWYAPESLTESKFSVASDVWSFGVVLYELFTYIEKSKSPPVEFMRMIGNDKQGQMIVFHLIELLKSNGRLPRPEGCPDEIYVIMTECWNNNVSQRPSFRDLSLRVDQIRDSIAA
Chain of JAK3/JAK1 (P23458 whole entry, one chain of several): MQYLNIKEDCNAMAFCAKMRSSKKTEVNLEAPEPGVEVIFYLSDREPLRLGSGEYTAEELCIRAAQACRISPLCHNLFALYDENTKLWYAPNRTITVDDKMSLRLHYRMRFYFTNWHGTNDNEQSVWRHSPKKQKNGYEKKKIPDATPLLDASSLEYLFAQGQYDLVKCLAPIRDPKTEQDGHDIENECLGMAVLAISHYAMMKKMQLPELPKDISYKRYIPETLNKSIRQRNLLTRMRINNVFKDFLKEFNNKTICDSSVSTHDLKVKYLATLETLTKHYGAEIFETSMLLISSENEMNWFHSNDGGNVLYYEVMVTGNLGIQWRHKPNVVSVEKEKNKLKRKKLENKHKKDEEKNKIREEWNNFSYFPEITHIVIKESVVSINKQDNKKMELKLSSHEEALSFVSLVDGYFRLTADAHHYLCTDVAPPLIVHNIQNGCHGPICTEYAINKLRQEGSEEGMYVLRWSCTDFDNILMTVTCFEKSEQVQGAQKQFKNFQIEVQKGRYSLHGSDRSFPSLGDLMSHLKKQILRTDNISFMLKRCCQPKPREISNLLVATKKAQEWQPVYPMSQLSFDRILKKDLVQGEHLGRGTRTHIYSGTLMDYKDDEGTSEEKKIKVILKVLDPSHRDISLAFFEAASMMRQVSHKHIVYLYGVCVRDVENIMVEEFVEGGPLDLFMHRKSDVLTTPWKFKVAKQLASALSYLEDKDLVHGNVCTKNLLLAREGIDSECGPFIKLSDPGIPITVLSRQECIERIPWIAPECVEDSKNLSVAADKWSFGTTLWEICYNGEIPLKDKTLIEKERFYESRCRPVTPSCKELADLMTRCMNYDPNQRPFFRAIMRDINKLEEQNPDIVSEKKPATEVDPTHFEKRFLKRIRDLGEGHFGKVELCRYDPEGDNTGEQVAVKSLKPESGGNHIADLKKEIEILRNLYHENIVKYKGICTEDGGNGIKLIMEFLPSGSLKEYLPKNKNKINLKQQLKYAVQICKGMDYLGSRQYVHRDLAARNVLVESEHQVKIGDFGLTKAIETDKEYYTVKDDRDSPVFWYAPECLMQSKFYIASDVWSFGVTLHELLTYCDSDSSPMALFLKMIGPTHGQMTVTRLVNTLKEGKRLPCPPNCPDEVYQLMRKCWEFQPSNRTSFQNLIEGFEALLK
Chain of Tyrosine-protein kinase JAK1 (P23458 whole entry): as the sequence (P23458 whole entry, one chain of several) above

With `CCn1c(C(=O)N(C2CC2)C2CC2)cc2c3c(ncn3C)c(Nc3cc(C)n(C)n3)nc21` [BMS-911543] the half-life [1] was 5.1 h, the Activity [2] was “Non-toxic” and the IC50 (BaF3 [3]) was 70 nM. It also gave an inhibition at 30 µM (hERG [4]) of 20%, a bioavailability [5] of 100% and a half-life [6] of 1.8 h. The Activity (Rattus norvegicus) was “Non-toxic”, the bioavailability [7] was 53% and the Kd [8] was 360 nM. It also gave an IC50 (BaF3 [9]) of 3500 nM, an inhibition (Homo sapiens) of less than 10% and a half-life [10] of 2.4 h. For the same molecule, the Activity (MIA PaCa-2) was “inactive”, the IC50 [11] was 2900 nM and the bioavailability [12] was 82%. For the same molecule, the Kd [13] was 110 nM, the clearance [14] was 5.3 mL/min/kg and the Vd [15] was 1.6 L/kg. The EC50 [16] was greater than 50000 nM, the IC50 [17] was 65 nM and the IC50 [18] was greater than 80000 nM. The IC50 (JAK3/JAK1) was 990 nM, the AUC(0-t) at 8 h [19] was 109 µM·h and the clearance [20] was 0.7 mL/min/kg. It also gave a clearance [21] of 6.5 mL/min/kg, an F (Mus musculus [22]) of 100% and an inhibition in vivo at 5 mg/kg (Mus musculus [23]) of 50%. It also gave an inhibition at 30 µM (hERG [24]) of 20% and an inhibition in vivo at 10 mg/kg (Mus musculus [25]) of 65%.
